Measured values taken from patent publication US20050009005A1, “Methods of using quantitative lipid metabolome data” (Lipomics Technologies, Inc., priority 2001, published 2005).

System: de novo fatty acid synthesis
Assay: Lipid metabolite profile of plasma, heart, liver and inguinal adipose of CL316,243-treated mice (trial 2; Tables 7 and 8)
Type: in vivo
Details: Liver, mean
From the text: It is understood that the described methods can be used to analyze lipid metabolites from other subjects, including particularly animals other than mice.
Mouse tissue and plasma samples were a generous donation to Lipomics Technologies, Inc., from Dr. Edward Leiter of the Jackson Laboratory (Bar Harbor, Me.). Samples included the plasma, heart, liver and inguinal adipose of mice treated with pharmaceuticals or their corresponding controls.
In trial 2, male, inbred NON mice were fed a control with or without the presence of the β-3 adrenergic agonist CL316,243 for four weeks (at 0.001% CL316,243 by weight in the dietary chow).
In both studies, five treated and five control mice were used. Following the treatments and the killing of the mice, tissues and plasma were taken, chilled to −80 ° C. and shipped to the analysis laboratory at Lipomics Technologies in a frozen state.
Tissue processing and lipid extraction, including provision of internal standards, was carried out essentially as described in Watkins et al. (J. Lipid Res. Papers in Press, 10.1184/jlf.M200169-JLF200, published August 16, 2002), and in co-owned international application PCT/US02/21426, entitled “GENERATING, VIEWING, INTERPRETING, AND UTILIZING A QUANTITATIVE DATABASE OF METABOLITES,” both of which are incorporated in their entirety herein by reference.
The separation of lipid classes was performed in some instance by preparative thin-layer chromatography (TLC). To remove any residual metal or other damaging contaminants on the TLC plates, each plate was washed prior to use. Washing the plates is a three-step process that involves impregnating each plate with ethylenediamine tetraacetic acid (EDTA) and rinsing the plates once with methanol and once with chloroform. Each plate is first impregnated with 1 mM EDTA, pH 5.5, by ascending development using the method of Ruiz (J. Lipid Res. 38, 1482-1489, 1997). After each plate was completely developed, it was dried in air overnight. Once dry, each plate was developed in methanol, dried, and developed in chloroform in the same direction as the development with EDTA. The washed plates were then dried in air. Just prior to use, each plate was activated by heating to 110° C. for 10 minutes.
To prepare the TLC chamber for chromatography, Whatman (Clifton, N.J.) filter paper was cut into 20×80-cm strips and wrapped around the inside wall of a 30×60×10-cm glass development chamber. One hundred milliliters of the appropriate mobile phase was added to the chamber, and the chambers were sealed and allowed to equilibrate. Chambers were considered equilibrated when the solvent front had completely ascended the filter paper. The mobile phase employed for the separation of phospholipid classes (lyso-phospholipids, sphingomyelin, phosphatidylcholine, phosphatidylserine, phosphatidylethanolamine and cardiolipin) was a modification of the solvent system described by Holub and Skeaf (“Nutritional regulation of cellular phosphatidylinositol,” in Methods in Enzymology, ed. Conn, P. M. (Academic Press, Inc., Orlando), pp. 234-243, 1987) consisting of chloroform/methanol/acetic acid/water (100:67:7:4, by volume).
For the separation of neutral lipid classes (free fatty acids, free sterols, triacylglycerides and cholesterol esters), a solvent system consisting of petroleum ether/diethyl ether/acetic acid (80:20:1, by volume) was used (Mangold, Thin Layer Chromatography—A Laboratory Handbook (Springer-Verlag, New York), 1969).
After the TLC plate was activated, the sample extracts were spotted onto the activated plate. As a general rule, samples were spotted at an estimated concentration such that no single lipid class was present at more than 25 jig per centimeter of plate width following chromatography. This ensured that the plate was not overloaded and minimized the risk of cross-contamination between lipid classes (cross-contamination is readily identified during sample analysis as each lipid class contains unique internal standards). […]

## C[C@H](Cc1ccc2c(c1)OC(C(=O)[O-])(C(=O)[O-])O2)NC[C@H](O)c1cccc(Cl)c1.[Na+].[Na+] [CL316,243]
FFA
  Total nMole of FA: 9555.8 nanomoles per gram
PC
  14:0: 69.0 nanomoles per gram
  16:0: 11221.7 nanomoles per gram
  16:1n7: 358.8 nanomoles per gram
  18:0: 5889.5 nanomoles per gram
  18:1n7: 741.3 nanomoles per gram
  18:1n9: 3855.0 nanomoles per gram
  Saturates: 17292.7 nanomoles per gram
  Total n7: 1100.1 nanomoles per gram
  Total n9: 3964.0 nanomoles per gram
  Total nMole of FA: 19052.2 nanomoles per gram
PE
  14:0: 13.1 nanomoles per gram
  16:0: 4406.0 nanomoles per gram
  16:1n7: 117.9 nanomoles per gram
  18:0: 3777.4 nanomoles per gram
  18:1n7: 247.4 nanomoles per gram
  18:1n9: 1320.6 nanomoles per gram
  Saturates: 8245.4 nanomoles per gram
  Total n7: 365.3 nanomoles per gram
  Total n9: 1376.1 nanomoles per gram
  Total nMole of FA: 9924.9 nanomoles per gram
PL
  14:0: 91.0 nanomoles per gram
  16:0: 16120.7 nanomoles per gram
  16:1n7: 586.5 nanomoles per gram
  18:0: 12438.5 nanomoles per gram
  18:1n7: 1242.7 nanomoles per gram
  18:1n9: 5839.1 nanomoles per gram
  Saturates: 29247.6 nanomoles per gram
  Total n7: 1829.2 nanomoles per gram
  Total n9: 6261.0 nanomoles per gram
  Total nMole of FA: 34731.4 nanomoles per gram
PS/I
  14:0: 19.9 nanomoles per gram
  16:0: 898.1 nanomoles per gram
  16:1n7: 37.8 nanomoles per gram
  18:0: 4313.9 nanomoles per gram
  18:1n7: 100.2 nanomoles per gram
  18:1n9: 486.8 nanomoles per gram
  Saturates: 5283.6 nanomoles per gram
  Total n7: 138.0 nanomoles per gram
  Total n9: 607.6 nanomoles per gram
  Total nMole of FA: 5625.0 nanomoles per gram
TAG
  14:0: 207.9 nanomoles per gram
  16:0: 6580.5 nanomoles per gram
  16:1n7: 675.6 nanomoles per gram
  18:0: 668.7 nanomoles per gram
  18:1n7: 619.4 nanomoles per gram
  18:1n9: 7123.9 nanomoles per gram
  Saturates: 7585.2 nanomoles per gram
  Total n7: 1295.0 nanomoles per gram
  Total n9: 7280.9 nanomoles per gram
  Total nMole of FA: 6910.6 nanomoles per gram
Lipid class CE
  14:0: 2.5 percentage of total fatty acids
  16:0: 27.3 percentage of total fatty acids
  16:1n7: 4.9 percentage of total fatty acids
  18:0: 7.1 percentage of total fatty acids
  18:1n7: 1.8 percentage of total fatty acids
  18:1n9: 25.4 percentage of total fatty acids
  Saturates: 39.0 percentage of total fatty acids
  Total: 100.0 percentage of total fatty acids
  Total n7: 6.7 percentage of total fatty acids
  Total n9: 26.9 percentage of total fatty acids
Lipid class CL
  14:0: 0.4 percentage of total fatty acids
  16:0: 4.9 percentage of total fatty acids
  16:1n7: 1.5 percentage of total fatty acids
  18:0: 4.7 percentage of total fatty acids
  18:1n7: 4.4 percentage of total fatty acids
  18:1n9: 8.7 percentage of total fatty acids
  Saturates: 10.4 percentage of total fatty acids
  Total: 25.0 percentage of total fatty acids
  Total n7: 5.9 percentage of total fatty acids
  Total n9: 9.4 percentage of total fatty acids
Lipid class FFA
  14:0: 1.6 percentage of total fatty acids
  16:0: 24.0 percentage of total fatty acids
  16:1n7: 3.9 percentage of total fatty acids
  18:0: 4.9 percentage of total fatty acids
  18:1n7: 2.8 percentage of total fatty acids
  18:1n9: 23.7 percentage of total fatty acids
  Saturates: 31.2 percentage of total fatty acids
  Total: 100.0 percentage of total fatty acids
  Total n7: 6.7 percentage of total fatty acids
  Total n9: 24.2 percentage of total fatty acids
Lipid class PC
  14:0: 0.2 percentage of total fatty acids
  16:0: 29.4 percentage of total fatty acids
  16:1n7: 0.9 percentage of total fatty acids
  18:0: 15.5 percentage of total fatty acids
  18:1n7: 1.9 percentage of total fatty acids
  18:1n9: 10.1 percentage of total fatty acids
  Saturates: 45.4 percentage of total fatty acids
  Total: 50.0 percentage of total fatty acids
  Total n7: 2.9 percentage of total fatty acids
  Total n9: 10.4 percentage of total fatty acids
Lipid class PE
  14:0: 0.1 percentage of total fatty acids
  16:0: 22.2 percentage of total fatty acids
  16:1n7: 0.6 percentage of total fatty acids
  18:0: 19.1 percentage of total fatty acids
  18:1n7: 1.2 percentage of total fatty acids
  18:1n9: 6.6 percentage of total fatty acids
  Saturates: 41.5 percentage of total fatty acids
  Total: 50.0 percentage of total fatty acids
  Total n7: 1.8 percentage of total fatty acids
  Total n9: 6.9 percentage of total fatty acids
Lipid class PL
  14:0: 0.1 percentage of total fatty acids
  16:0: 23.2 percentage of total fatty acids
  16:1n7: 0.8 percentage of total fatty acids
  18:0: 17.9 percentage of total fatty acids
  18:1n7: 1.8 percentage of total fatty acids
  18:1n9: 8.4 percentage of total fatty acids
  Saturates: 42.1 percentage of total fatty acids
  Total: 50.0 percentage of total fatty acids
  Total n7: 2.6 percentage of total fatty acids
  Total n9: 9.0 percentage of total fatty acids
Lipid class PS/I
  14:0: 0.2 percentage of total fatty acids
  16:0: 8.0 percentage of total fatty acids
  16:1n7: 0.3 percentage of total fatty acids
  18:0: 38.4 percentage of total fatty acids
  18:1n7: 0.9 percentage of total fatty acids
  18:1n9: 4.3 percentage of total fatty acids
  Saturates: 47.0 percentage of total fatty acids
  Total: 50.0 percentage of total fatty acids
  Total n7: 1.2 percentage of total fatty acids
